Measured values reported in the supplement of paper PMC10307832.

The cell lines below were run with COc1cc([C@@H]2c3cc4c(cc3[C@@H](O[C@@H]3O[C@@H]5CO[C@@H](C)O[C@H]5[C@H](O)[C@H]3O)[C@H]3COC(=O)[C@H]23)OCO4)cc(OC)c1O [Etoposide] + Cc1nc(Nc2ncc(C(=O)Nc3c(C)cccc3Cl)s2)cc(N2CCN(CCO)CC2)n1 [Dasatinib] (partner 0.075 µM) (assay: relative viability (nuclei count vs DMSO), 5 days (fraction); higher = more cells survive). Settings: first compound 0.01 µM.
Summary of the method: (§1)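 Relative viability is defined as nuclei in treated wells over nuclei in vehicle wells. Duplicate plates were run and medians reported. Lung cancer cell lines in 1536-well plates were dosed by pin tool one day after seeding, with one drug or with a fixed anchor-drug dose plus five library-drug doses (not always all listed) in √10 steps, and nuclei were counted after 5 days.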

Row | Cell Line | relative viability
1 | NCI-H23 | 0.805
2 | NCI-H1355 | 0.673
3 | NCI-H322M | 0.272
4 | NCI-H1437 | 0.585
5 | NCI-H1755 | 0.433
6 | NCI-H2023 | 0.492
7 | HCC-15 | 0.623
8 | PC-3 [JPC-3] | 0.915
9 | EKVX | 0.619
10 | LC-2-ad | 0.546
11 | NCI-H1975 | 0.336
12 | SK-LU-1 | 0.172
13 | NCI-H661 | 0.787
14 | RERF-LC-KJ | 0.602

Same assay, conditions: first compound 0.03162 µM

Row | Cell Line | relative viability
15 | NCI-H23 | 0.821
16 | NCI-H1355 | 0.692
17 | NCI-H322M | 0.237
18 | NCI-H1437 | 0.443
19 | NCI-H1755 | 0.452
20 | NCI-H2023 | 0.554
21 | HCC-15 | 0.64
22 | PC-3 [JPC-3] | 0.915
23 | EKVX | 0.529
24 | LC-2-ad | 0.612
25 | NCI-H1975 | 0.426
26 | SK-LU-1 | 0.177
27 | NCI-H661 | 1.02
28 | RERF-LC-KJ | 0.899

Same assay, conditions: first compound 0.1 µM

Row | Cell Line | relative viability
29 | NCI-H23 | 0.504
30 | NCI-H1355 | 0.376
31 | NCI-H322M | 0.232
32 | NCI-H1437 | 0.283
33 | NCI-H1755 | 0.469
34 | NCI-H2023 | 0.378
35 | HCC-15 | 0.537
36 | PC-3 [JPC-3] | 0.871
37 | EKVX | 0.354
38 | LC-2-ad | 0.451
39 | NCI-H1975 | 0.32
40 | SK-LU-1 | 0.172
41 | NCI-H661 | 0.671
42 | RERF-LC-KJ | 0.707

Same assay, conditions: first compound 0.3162 µM

Row | Cell Line | relative viability
43 | NCI-H23 | 0.384
44 | NCI-H1355 | 0.622
45 | NCI-H322M | 0.26
46 | NCI-H1437 | 0.29
47 | NCI-H1755 | 0.413
48 | NCI-H2023 | 0.326
49 | HCC-15 | 0.261
50 | PC-3 [JPC-3] | 0.961
51 | EKVX | 0.37
52 | LC-2-ad | 0.244
53 | NCI-H1975 | 0.348
54 | SK-LU-1 | 0.14
55 | NCI-H661 | 0.586
56 | RERF-LC-KJ | 0.73

Same assay, conditions: first compound 1 µM

Row | Cell Line | relative viability
57 | NCI-H23 | 0.185
58 | NCI-H1355 | 0.251
59 | NCI-H322M | 0.254
60 | NCI-H1437 | 0.165
61 | NCI-H1755 | 0.394
62 | NCI-H2023 | 0.125
63 | HCC-15 | 0.0797
64 | PC-3 [JPC-3] | 0.927
65 | EKVX | 0.282
66 | LC-2-ad | 0.142
67 | NCI-H1975 | 0.214
68 | SK-LU-1 | 0.122
69 | NCI-H661 | 0.306
70 | RERF-LC-KJ | 0.494

The cell lines below were run with COc1cc([C@@H]2c3cc4c(cc3[C@@H](O[C@@H]3O[C@@H]5CO[C@@H](C)O[C@H]5[C@H](O)[C@H]3O)[C@H]3COC(=O)[C@H]23)OCO4)cc(OC)c1O [Etoposide] + O=C(CCCCCCC(=O)Nc1ccccc1)NO [Vorinostat] (partner 1 µM) in the same assay as above. Settings: first compound 0.01 µM.
Summary of the method: as §1

Row | Cell Line | relative viability
71 | NCI-H23 | 0.633
72 | NCI-H1355 | 0.635
73 | NCI-H322M | 0.863
74 | NCI-H1437 | 0.871
75 | NCI-H1755 | 0.748
76 | NCI-H2023 | 0.442
77 | HCC-15 | 0.766
78 | PC-3 [JPC-3] | 0.796
79 | EKVX | 0.543
80 | LC-2-ad | 0.687
81 | NCI-H1975 | 0.726
82 | SK-LU-1 | 0.696
83 | NCI-H661 | 0.759
84 | RERF-LC-KJ | 0.624

Same assay, conditions: first compound 0.03162 µM

Row | Cell Line | relative viability
85 | NCI-H23 | 0.604
86 | NCI-H1355 | 0.687
87 | NCI-H322M | 0.962
88 | NCI-H1437 | 0.877
89 | NCI-H1755 | 0.896
90 | NCI-H2023 | 0.626
91 | HCC-15 | 0.894
92 | PC-3 [JPC-3] | 1.09
93 | EKVX | 0.746
94 | LC-2-ad | 0.736
95 | NCI-H1975 | 0.728
96 | SK-LU-1 | 0.671
97 | NCI-H661 | 0.841
98 | RERF-LC-KJ | 0.728

Same assay, conditions: first compound 0.1 µM

Row | Cell Line | relative viability
99 | NCI-H23 | 0.316
100 | NCI-H1355 | 0.392
101 | NCI-H322M | 0.73
102 | NCI-H1437 | 0.804
103 | NCI-H1755 | 0.694
104 | NCI-H2023 | 0.335
105 | HCC-15 | 0.779
106 | PC-3 [JPC-3] | 0.69
107 | EKVX | 0.512
108 | LC-2-ad | 0.69
109 | NCI-H1975 | 0.739
110 | SK-LU-1 | 0.638
111 | NCI-H661 | 0.706
112 | RERF-LC-KJ | 0.5

Same assay, conditions: first compound 0.3162 µM

Row | Cell Line | relative viability
113 | NCI-H23 | 0.262
114 | NCI-H1355 | 0.461
115 | NCI-H322M | 0.728
116 | NCI-H1437 | 0.435
117 | NCI-H1755 | 0.743
118 | NCI-H2023 | 0.176
119 | HCC-15 | 0.275
120 | PC-3 [JPC-3] | 0.694
121 | EKVX | 0.444
122 | LC-2-ad | 0.459
123 | NCI-H1975 | 0.476
124 | SK-LU-1 | 0.273
125 | NCI-H661 | 0.476
126 | RERF-LC-KJ | 0.621

Same assay, conditions: first compound 1 µM

Row | Cell Line | relative viability
127 | NCI-H23 | 0.145
128 | NCI-H1355 | 0.272
129 | NCI-H322M | 0.611
130 | NCI-H1437 | 0.396
131 | NCI-H1755 | 0.474
132 | NCI-H2023 | 0.0989
133 | HCC-15 | 0.178
134 | PC-3 [JPC-3] | 0.518
135 | EKVX | 0.253
136 | LC-2-ad | 0.245
137 | NCI-H1975 | 0.328
138 | SK-LU-1 | 0.249
139 | NCI-H661 | 0.382
140 | RERF-LC-KJ | 0.412
